From patent US20240018121A1, “NOVEL HETEROAROMATIC COMPOUNDS EXHIBITING ANTIFUNGAL ACTIVITY AND THEIR METHOD OF USE” (FOX CHASE CHEMCIAL DIVERSITY CENTER, INC., priority 2020, published 2024)
≈ marks a conversion by molar mass, not a printed value. Structures can show the parent of a compound that is named as a salt. Where two headings read alike, the source gives them in different places.

Columns and labels:
Type in all cases: cell-based
[1] = system: Mucor ramosissimus 057718 (ATCC 90286); assay: Fungal MIC Protocol, Mucor ramosissimus (MIC-50); conditions: Mucor ramosissimus, read-out: MIC-50 Mucorales ramosissimus 90286
Method in brief: (§1)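 MIC-type endpoint: >50% growth inhibition, judged by eye with an inverted mirror. Spores in RPMI/MOPS (pH 7.0, ~2×10^4 cfu/mL) were incubated 48 hours at 35° C with duplicate serial compound dilutions.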

[2] = system: Aspergillus flavus AFL1 (ATCC MYA-3631); assay: Fungal MIC Protocol, Aspergillus flavus; conditions: Aspergillus flavus, read-out: MIC Aspergillus flavus 3631
Method in brief: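 The MIC against Aspergillus flavus was measured by broth microdilution in RPMI/MOPS medium at pH 7.0. Compounds were diluted to 200 ug/mL from DMSO stocks, then ten serial dilutions were tested in duplicate in round bottom 96-well plates. Spores adjusted to a final OD530 of 0.002 were added, with no-cell and no-compound control wells, and plates were incubated 48 hours at 35° C.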

[3] = system: Fusarium falciforme FS1 (ATCC MYA-3636); assay: Fungal MIC Protocol, Fusarium falciforme; conditions: Fusarium falciforme, read-out: MIC Fusarium falciforme 3636
Method in brief: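 MIC against Fusarium falciforme was determined by broth microdilution in RPMI/MOPS medium containing glucose. Compounds started at 200 ug/mL and were serially diluted ten times, then combined with harvested spores adjusted to an OD530 of 0.005. Controls held compound without cells and spores without compound. Plates were bagged and incubated at 35° C. for 48 hours.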

[4] = system: Mucor circinelloides 1463(62) (ATCC 26759); assay: Fungal MIC Protocol, Mucor circinelloides (MIC-50); conditions: Mucor circinelloides, read-out: MIC-50 Mucorales circinelloides 26579
Method in brief: as §1

[5] = system: Aspergillus fumigatus T33439 (ATCC MYA-3626); assay: Fungal MIC Protocol, Aspergillus fumigatus; conditions: Aspergillus fumigatus, read-out: MIC Aspergillus fumigatus 3626
Method in brief: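 This broth microdilution MIC test used RPMI/MOPS medium at pH 7.0 with glucose. Compounds were diluted from DMSO stock to 200 ug/mL and serially diluted ten times in 96-well round bottom plates. Equal volumes of compound and Aspergillus spore suspension at OD530 0.002 were combined, with controls of compound without cells and spores without compound. Plates were bagged and incubated at 35° C. for 48 hours.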

[6] = system: Fusarium solani (ATCC 58877); assay: Fungal MIC Protocol, Fusarium solani; conditions: Fusarium solani, read-out: MIC Fusarium solani 58877
Method in brief: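 Broth microdilution MIC test against Fusarium solani in RPMI/MOPS medium at pH 7.0. Compounds from DMSO stock were diluted to 200 ug/mL, then serially diluted ten times and plated in duplicate at 50 μl per well. 50 ul of spore suspension at OD530 0.005 was added. Controls had compound without cells and spores without compound. Plates were mixed gently, bagged, and incubated at 35° C. for 48 hours.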

Candida albicans GDH2346 = assay: Candida Minimal Inhibitory Concentration (MIC); conditions: Candida albicans, read-out: MIC-50 Candida albicans GDH2346
Method in brief: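 Twofold serial dilutions from 200 μg/mL in RPMI 1640/MOPS with glucose, pH 7.0, tested in duplicate against yeast from an OD600 1.0 suspension diluted 1:1000. Incubated at 35° C; OD600 read at 24 and 48 h.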

[7] = ATCC90286, 50% growth inhibition at 48 hours
[8] = 100% growth inhibition at 48 hours
[9] = ATCC26759, 50% growth inhibition at 48 hours
[10] = ATCC58877, 100% growth inhibition at 48 hours
[11] = GDH2346, 50% growth inhibition at 48 hours

MIC50 [1, 7] | MIC [2, 8] | MIC [3, 8] | MIC50 [4, 9] | MIC [5, 8] | MIC [6, 10] | MIC50 (Candida albicans GDH2346; [11]) | Compound | MIC50 ([1]; ATCC90286, 48 h) | MIC ([2]; 48 h) | MIC ([3]; 48 h) | MIC50 ([4]; ATCC26759, 48 h) | MIC ([5]; 48 h) | MIC ([6]; ATCC58877, 48 h) | MIC50 (Candida albicans GDH2346; GDH2346, 48 h)
3.13 µg/mL (≈ 5.72 µM) | 0.2 µg/mL (≈ 0.365 µM) | < 0.1 µg/mL | 0.39 µg/mL (≈ 0.712 µM) | < 0.1 µg/mL | < 0.1 µg/mL | 0.2 µg/mL (≈ 0.365 µM) | N=C(N)N1CC=C(c2ccc(-c3nnc(-c4ccc(C5=CCN(C(=N)N)CC5)cc4F)n3CCO)c(F)c2)CC1 [Example 57, 4,4′-(4,4′-(4-(2-Hydroxyethyl)-4H-1,2,4-triazole-3,5-diyl)bis(3-fluoro-4,1-phenylene))bis(5,6-dihydropyridine-1(2H)-carboximidamide)] |  |  |  |  |  |  | 
 |  |  |  |  |  |  | COCCn1c(-c2ccc(C3=CCN(C(=N)N)CC3)cc2)nnc1-c1ccc(C2=CCN(C(=N)N)CC2)cc1 [Example 67, 4-(4-{5-[4-(1-carbamimidoyl-1,2,3,6-tetrahydropyridin-4-yl)phenyl]-4-(2-methoxyethyl)-4H-1,2,4-triazol-3-yl}phenyl)-1,2,3,6-tetrahydropyridine-1-carboximidamide trifluoroacetate] | 1.56 µg/mL | 0.1 µg/mL | 0.05 µg/mL | 0.39 µg/mL | 0.1 µg/mL | 0.05 µg/mL | 0.2 µg/mL
 |  |  |  |  |  |  | COCCn1c(-c2ccc(C3=CCN(C(=N)N)CC3)cc2F)nnc1-c1ccc(C2=CCN(C(=N)N)CC2)cc1F [Example 68, 4-(4-{5-[4-(1-carbamimidoyl-1,2,3,6-tetrahydropyridin-4-yl)-2-fluorophenyl]-4-(2-methoxyethyl)-4H-1,2,4-triazol-3-yl}-3-fluorophenyl)-1,2,3,6-tetrahydropyridine-1-carboximidamide trifluoroacetate] | 0.78 µg/mL | < 0.1 µg/mL | < 0.1 µg/mL | 0.39 µg/mL | 0.1 µg/mL | < 0.1 µg/mL | 0.2 µg/mL
 |  |  |  |  |  |  | N=C(N)N1CC=C(c2ccc(-c3nnc(-c4ccc(C5=CCN(C(=N)N)CC5)cc4)n3C3CCCC3)cc2)CC1 [Example 69, 4-(4-{5-[4-(1-carbamimidoyl-1,2,3,6-tetrahydropyridin-4-yl)phenyl]-4-cyclopentyl-4H-1,2,4-triazol-3-yl}phenyl)-1,2,3,6-tetrahydropyridine-1-carboximidamide trifluoroacetate] | 0.39 µg/mL | 0.2 µg/mL | < 0.1 µg/mL | 0.39 µg/mL | 0.1 µg/mL | < 0.1 µg/mL | 0.39 µg/mL
12.5 µg/mL | 0.1 µg/mL | 0.05 µg/mL | 1.56 µg/mL | 0.1 µg/mL | 0.05 µg/mL | 0.3 µg/mL | Cl.N=C(N)N1CC=C(c2ccc(-c3nnc(-c4ccc(C5=CCN(C(=N)N)CC5)cc4)n3CCO)cc2)CC1 [Example 70, 4-(4-{5-[4-(1-carbamimidoyl-1,2,3,6-tetrahydropyridin-4-yl)phenyl]-4-(2-hydroxyethyl)-4H-1,2,4-triazol-3-yl}phenyl)-1,2,3,6-tetrahydropyridine-1-carboximidamide hydrochloride] |  |  |  |  |  |  | 
 |  |  |  |  |  |  | N=C(N)N1CC=C(c2ccc(-c3nnc(-c4ccc(C5=CCN(C(=N)N)CC5)cc4F)n3CCCO)c(F)c2)CC1 [Example 73, 4-(4-{5-[4-(1-carbamimidoyl-1,2,3,6-tetrahydropyridin-4-yl)-2-fluorophenyl]-4-(3-hydroxypropyl)-4H-1,2,4-triazol-3-yl}-3-fluorophenyl)-1,2,3,6-tetrahydropyridine-1-carboximidamide hydrochloride] | 3.13 µg/mL | 0.2 µg/mL | 0.1 µg/mL | 1.56 µg/mL | 0.1 µg/mL | 0.05 µg/mL | 0.2 µg/mL
 |  |  |  |  |  |  | Cn1c(-c2ccc(C3=CCN(C(=N)N)CC3)cc2)nnc1-c1ccc(C2=CCN(C(=N)N)CC2)cc1F [Example 78, 4-(4-{5-[4-(1-carbamimidoyl-1,2,3,6-tetrahydropyridin-4-yl)-2-fluorophenyl]-4-methyl-4H-1,2,4-triazol-3-yl}phenyl)-1,2,3,6-tetrahydropyridine-1-carboximidamide trifluoroacetate] | 0.78 µg/mL | 0.1 µg/mL | 0.05 µg/mL | 0.2 µg/mL | 0.05 µg/mL | 0.1 µg/mL | 0.2 µg/mL
0.39 µg/mL | 0.1 µg/mL | 0.05 µg/mL | 0.2 µg/mL | 0.1 µg/mL | 0.1 µg/mL | 0.1 µg/mL | Cn1c(-c2ccc(C3=CCN(C(=N)N)CC3)c(F)c2)nnc1-c1ccc(C2=CCN(C(=N)N)CC2)cc1F [Example 79, 4-(4-{5-[4-(1-carbamimidoyl-1,2,3,6-tetrahydropyridin-4-yl)-2-fluorophenyl]-4-methyl-4H-1,2,4-triazol-3-yl}-2-fluorophenyl)-1,2,3,6-tetrahydro pyridine-1-carboximidamide trifluoroacetate] |  |  |  |  |  |  | 
 |  |  |  |  |  |  | N=C(N)N1CC=C(c2ccc(-c3nnc(-c4ccc(C5=CCN(C(=N)N)CC5)cc4F)n3CCO)cc2)CC1 [Example 82, 4-(4-{5-[4-(1-carbamimidoyl-1,2,3,6-tetrahydropyridin-4-yl)-2-fluorophenyl]-4-(2-hydroxyethyl)-4H-1,2,4-triazol-3-yl}phenyl)-1,2,3,6-tetrahydropyridine-1-carboximidamide hydrochloride] | 1.56 µg/mL | 0.2 µg/mL | 0.05 µg/mL | 0.39 µg/mL | 0.1 µg/mL | 0.05 µg/mL | 0.2 µg/mL
 |  |  |  |  |  |  | N=C(N)N1CC=C(c2ccc(-c3nnc(-c4ccc(C5=CCN(C(=N)N)CC5)cc4F)n3CC(F)(F)F)c(F)c2)CC1 [Example 84, 4-(4-{5-[4-(1-carbamimidoyl-1,2,3,6-tetrahydropyridin-4-yl)-2-fluorophenyl]-4-(2,2,2-trifluoroethyl)-4H-1,2,4-triazol-3-yl}-3-fluorophenyl)-1,2,3,6-tetrahydropyridine-1-carboximidamide hydrochloride] | 0.78 µg/mL | 0.39 µg/mL | 0.1 µg/mL | 0.39 µg/mL | 0.2 µg/mL | 0.05 µg/mL | 0.2 µg/mL
 |  |  |  |  |  |  | Cn1c(-c2cc(F)c(C3=CCN(C(=N)N)CC3)c(F)c2)nnc1-c1ccc(C2=CCN(C(=N)N)CC2)cc1F [Example 85, 4-(4-{5-[4-(1-carbamimidoyl-1,2,3,6-tetrahydropyridin-4-yl)-2-fluorophenyl]-4-methyl-4H-1,2,4-triazol-3-yl}-2,6-difluorophenyl)-1,2,3,6-tetrahydropyridine-1-carboximidamide trifluoroacetate] | 0.78 µg/mL | 0.024 µg/mL | < 0.012 µg/mL | 0.2 µg/mL | 0.024 µg/mL | < 0.012 µg/mL | 0.1 µg/mL
6.25 µg/mL | 0.78 µg/mL | 0.78 µg/mL | 1.56 µg/mL | 0.78 µg/mL | 0.2 µg/mL | 0.78 µg/mL | COCCn1c(-c2ccc(C3=CCC(C(=N)N)CC3)cc2F)nnc1-c1ccc(C2=CCC(C(=N)N)CC2)cc1F.O=C(O)C(F)(F)F (stereo not drawn) [Example 86, 4-(4-{5-[4-(4-carbamimidoylcyclohex-1-en-1-yl)-2-fluorophenyl]-4-(2-methoxyethyl)-4H-1,2,4-triazol-3-yl}-3-fluorophenyl)cyclohex-3-ene-1-carboximidamide trifluoroacetate] |  |  |  |  |  |  | 
